This is an account of results in patent US12227490B2, “Cereblon binding compounds, compositions thereof, and methods of treatment therewith” (Celgene Corporation, priority 2020, dated 2025).

By DC50 is commonly meant the midpoint of the concentration-degradation curve. Read a low DC50 as a more potent degrader.

Counter-ions that a name gives are not always drawn.

The test deals with T1, AR (androgen receptor) protein in VCaP cells (Homo sapiens, UniProt P10275).
T1 construct: endogenous in cells; host or cells: VCaP cells
T1 sequence (P10275 1-920): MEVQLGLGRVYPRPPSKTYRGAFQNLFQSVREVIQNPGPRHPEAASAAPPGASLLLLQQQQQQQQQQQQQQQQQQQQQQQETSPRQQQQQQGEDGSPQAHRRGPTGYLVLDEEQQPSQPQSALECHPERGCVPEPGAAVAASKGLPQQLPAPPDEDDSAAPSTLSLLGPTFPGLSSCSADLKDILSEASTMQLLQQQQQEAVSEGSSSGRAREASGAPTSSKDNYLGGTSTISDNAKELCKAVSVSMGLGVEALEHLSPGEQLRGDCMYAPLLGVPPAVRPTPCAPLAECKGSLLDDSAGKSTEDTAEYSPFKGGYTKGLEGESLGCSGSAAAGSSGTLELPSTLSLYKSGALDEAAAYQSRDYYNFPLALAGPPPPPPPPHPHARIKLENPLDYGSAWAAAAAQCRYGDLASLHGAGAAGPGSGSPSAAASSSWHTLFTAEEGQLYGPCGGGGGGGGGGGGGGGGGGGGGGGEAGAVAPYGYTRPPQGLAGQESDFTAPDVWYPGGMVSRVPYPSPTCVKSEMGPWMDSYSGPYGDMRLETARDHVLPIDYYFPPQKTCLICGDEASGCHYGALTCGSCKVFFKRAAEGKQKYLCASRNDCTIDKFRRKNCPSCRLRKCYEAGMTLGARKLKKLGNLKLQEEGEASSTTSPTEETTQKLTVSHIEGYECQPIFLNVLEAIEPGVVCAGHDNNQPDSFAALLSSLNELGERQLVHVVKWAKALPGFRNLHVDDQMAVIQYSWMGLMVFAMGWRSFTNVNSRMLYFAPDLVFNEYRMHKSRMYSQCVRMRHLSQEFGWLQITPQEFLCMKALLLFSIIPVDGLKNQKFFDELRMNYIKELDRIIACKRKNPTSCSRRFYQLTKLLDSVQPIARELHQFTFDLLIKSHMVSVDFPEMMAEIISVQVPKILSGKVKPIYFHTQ
The experiment in a line: VCAP AR Degradation Assay. The format is cell-based. Conditions: 24 h, AR ELISA; for DC50: concentration of compound when AR level = 50% of DMSO control; for remaining activity at up to 5 µM: top concentration 5 μM, read-out: Y (lowest measured AR level normalized to DMSO control, AR degradation efficiency). Here is the method: VCAP AR Degradation Assay. Test compounds were pre-dispensed into a Corning CellBind 96-well clear bottom plate (Cat #3300) using an acoustic dispenser to make a 10-point concentration series at 1:3 dilution for each compound. The final top concentration of each compound was 5 μM. DMSO at a final concentration of 0.1% was used as a control. VCaP cells cultured in DMEM with 8% fetal bovine serum (FBS) were seeded at 50K cells per well in a 200 μL volume into the compound plate and incubated at 37° C. in a CO2 incubator for 24 h. The medium was carefully removed from the cells and the plate was placed on ice. One hundred μL of ice-cold 1× cell lysis buffer from Cell Signaling Technologies (Cat #9803) was added to each well of the cells and the plate was incubated at 4° C. on a shaker for 1 h. Fifteen μL of cell lysate was used for AR ELISA detection using a PathScan Total Sandwich AR ELISA kit (Cell Signaling Technology, Cat #12580). AR levels in compound-treated wells were normalized to that of DMSO control and expressed as percent of control (PoC) (y). A Four Parameter Logistic Model (Sigmoidal Dose-Response Model) was used to determine the compound's DC50, and EC50, using the following equation: y=(A+((B−A)/(1+((C/x)^D)))) • A=YMin (lowest AR level normalized to DMSO control in response to compound treatment, as determined by curve fit) • B=YMax (maximum AR level as determined by curve fit) • C=EC50 • D=Hill Slope • x=compound concentration • EC50=the concentration of compound when y=(YMax−YMin)/2 • DC50=the concentration of the compound when y=50% of DMSO control (50% AR degradation) • y=AR protein level normalized to DMSO control
The lowest measured AR level normalized to DMSO control in response to compound treatment, termed Y value, was used to characterize the compound-mediated AR degradation efficiency.
(An ELISA detects its analyte on a solid surface through an enzyme-linked reagent.)

For the molecule `C[C@@H]1C[C@H](CCO[C@H]2CC[C@H](N3C(=S)N(c4cnc(C#N)c(C(F)(F)F)c4)C(=O)C3(C)C)CC2)C[C@H](C)N1CC(=O)Nc1cccc2c(C3CCC(=O)NC3=O)nn(C)c12` (stereo partly drawn) [Cmpd 15, 2-((2R,4r,6S)-4-(2-(((trans)-4-(3-(6-Cyano-5-(trifluoromethyl)pyridine-3-yl)-5,5-dimethyl-4-oxo-2-thioxoimidazolidin-1-yl)cyclohexyl)oxy)ethyl)-2,6-dimethylpiperidin-1-yl)-N-(3-(2,6-dioxopiperidin-3-yl)-1-methyl-1H-indazol-7-yl)acetamide], the DC50 was < 2 nM and the remaining activity at up to 5 µM lay within 0 to 25%.
The like results for `Cn1nc(C2CCC(=O)NC2=O)c2cccc(NC(=O)CN3CCC(CCO[C@H]4CC[C@H](N5C(=S)N(c6cnc(C#N)c(C(F)(F)F)c6)C(=O)C5(C)C)CC4)C(F)(F)C3)c21` (stereo partly drawn) [Cmpd 29, 2-(4-(2-(((trans)-4-(3-(6-Cyano-5-(trifluoromethyl)pyridin-3-yl)-5,5-dimethyl-4-oxo-2-thioxoimidazolidin-1-yl)cyclohexyl)oxy)ethyl)-3,3-difluoropiperidin-1-yl)-N-(3-(2,6-dioxopiperidin-3-yl)-1-methyl-1H-indazol-7-yl)acetamide] were, in that order, < 2 nM and 0 to 25%.
For `C[C@@H]1CN(CCCO[C@H]2CC[C@H](N3C(=S)N(c4ccc(C#N)c(Cl)c4)C(=O)C3(C)C)CC2)C[C@H](C)N1CC(=O)Nc1cccc2c(C3CCC(=O)NC3=O)nn(C)c12` (stereo partly drawn) [Cmpd 5, 2-((2R,6S)-4-(3-((trans-4-(3-(3-Chloro-4-cyanophenyl)-5,5-dimethyl-4-oxo-2-thioxoimidazolidin-1-yl)cyclohexyl)oxy)propyl)-2,6-dimethylpiperazin-1-yl)-N-(3-(2,6-dioxopiperidin-3-yl)-1-methyl-1H-indazol-7-yl)acetamide hydrochloride] the same measures were < 2 nM and 30 to 50%.
The like results for `C[C@@H]1C[C@H](CCO[C@H]2CC[C@H](N3C(=S)N(c4ccc(C#N)c(C(F)(F)F)c4)C(=O)C3(C)C)CC2)C[C@H](C)N1CC(=O)Nc1cccc2c(C3CCC(=O)NC3=O)nn(C)c12` (stereo partly drawn) [Cmpd 13, 2-((2R,4r,6S)-4-(2-((trans-4-(3-(4-Cyano-3-(trifluoromethyl)phenyl)-5,5-dimethyl-4-oxo-2-thioxoimidazolidin-1-yl)cyclohexyl)oxy)ethyl)-2,6-dimethylpiperidin-1-yl)-N-(3-(2,6-dioxopiperidin-3-yl)-1-methyl-1H-indazol-7-yl)acetamide hydrochloride] were, in that order, 2 to 5 nM and 0 to 25%.
With `C[C@@H]1CN(CCC[C@H]2CC[C@H](N3C(=S)N(c4cnc(C#N)c(C(F)(F)F)c4)C(=O)C3(C)C)CC2)C[C@H](C)N1CC(=O)Nc1cccc2c(C3CCC(=O)NC3=O)nn(C)c12` (stereo partly drawn) [Cmpd 9, 2-((2R,6S)-4-(3-(trans-4-(3-(6-Cyano-5-(trifluoromethyl)pyridin-3-yl)-5,5-dimethyl-4-oxo-2-thioxoimidazolidin-1-yl)cyclohexyl)propyl)-2,6-dimethylpiperazin-1-yl)-N-(3-(2,6-dioxopiperidin-3-yl)-1-methyl-1H-indazol-7-yl)acetamide], the DC50 was in the range of 2 to 5 nM and the remaining activity at up to 5 µM lay in the range of 25 to 30%.
The like results for `C[C@@H]1C[C@@H](CCO[C@H]2CC[C@H](N3C(=S)N(c4cnc(C#N)c(C(F)(F)F)c4)C(=O)C3(C)C)CC2)C[C@H](C)N1CC(=O)Nc1cccc2c(C3CCC(=O)NC3=O)nn(C)c12` (stereo partly drawn) [Cmpd 16, 2-((2R,4s,6S)-4-(2-(((trans)-4-(3-(6-Cyano-5-(trifluoromethyl)pyridin-3-yl)-5,5-dimethyl-4-oxo-2-thioxoimidazolidin-1-yl)cyclohexyl)oxy)ethyl)-2,6-dimethylpiperidin-1-yl)-N-(3-(2,6-dioxopiperidin-3-yl)-1-methyl-1H-indazol-7-yl)acetamide] were, in that order, < 2 nM and 0 to 25%.
For `Cn1nc(C2CCC(=O)NC2=O)c2cccc(NC(=O)CN3CCN(CCCO[C@H]4CC[C@H](N5C(=S)N(c6ccc(C#N)c(C(F)(F)F)c6)C(=O)C5(C)C)CC4)C[C@@H]3C(F)(F)F)c21` (stereo partly drawn) [Cmpd 21, 2-((R)-4-(3-(((trans)-4-(3-(4-Cyano-3-(trifluoromethyl)phenyl)-5,5-dimethyl-4-oxo-2-thioxoimidazolidin-1-yl)cyclohexyl)oxy)propyl)-2-(trifluoromethyl)piperazin-1-yl)-N-(3-(2,6-dioxopiperidin-3-yl)-1-methyl-1H-indazol-7-yl)acetamide] the same measures were < 2 nM and 0 to 25%.
For `C[C@@H]1CN(CCCO[C@H]2CC[C@H](N3C(=S)N(c4ccc(C#N)c(C(F)(F)F)c4)C(=O)C3(C)C)CC2)C[C@H](C)N1CC(=O)Nc1cccc2c(C3CCC(=O)NC3=O)nn(C)c12` (stereo partly drawn) [Cmpd 8, 2-((2R,6S)-4-(3-((trans-4-(3-(4-Cyano-3-(trifluoromethyl)phenyl)-5,5-dimethyl-4-oxo-2-thioxoimidazolidin-1-yl)cyclohexyl)oxy)propyl)-2,6-dimethylpiperazin-1-yl)-N-(3-(2,6-dioxopiperidin-3-yl)-1-methyl-1H-indazol-7-yl)acetamide] the same measures were < 2 nM and 25 to 30%.
With `C[C@@H]1CN(CCO[C@H]2CC[C@H](N3C(=S)N(c4cnc(C#N)c(Cl)c4)C(=O)C3(C)C)CC2)C[C@H](C)N1CC(=O)Nc1cccc2c(C3CCC(=O)NC3=O)nn(C)c12` (stereo partly drawn) [Cmpd 6, 2-((2R,6S)-4-(2-((trans-4-(3-(5-Chloro-6-cyanopyridin-3-yl)-5,5-dimethyl-4-oxo-2-thioxoimidazolidin-1-yl)cyclohexyl)oxy)ethyl)-2,6-dimethylpiperazin-1-yl)-N-(3-(2,6-dioxopiperidin-3-yl)-1-methyl-1H-indazol-7-yl)acetamide hydrochloride], the DC50 is < 2 nM and the remaining activity at up to 5 µM was 0 to 25%.
The like results for `C[C@@H]1C[C@H](OCCC[C@H]2CC[C@H](N3C(=S)N(c4ccc(C#N)c(C(F)(F)F)c4)C(=O)C3(C)C)CC2)C[C@H](C)N1CC(=O)Nc1cccc2c(C3CCC(=O)NC3=O)nn(C)c12` (stereo partly drawn) [Cmpd 23, 2-((2R,4r,6S)-4-(3-((trans)-4-(3-(4-Cyano-3-(trifluoromethyl)phenyl)-5,5-dimethyl-4-oxo-2-thioxoimidazolidin-1-yl)cyclohexyl)propoxy)-2,6-dimethylpiperidin-1-yl)-N-(3-(2,6-dioxopiperidin-3-yl)-1-methyl-1H-indazol-7-yl)acetamide] were, in that order, 20 to 100 nM and 0 to 25%.
For `Cn1nc(C2CCC(=O)NC2=O)c2cccc(NC(=O)CN3CCN(CCO[C@H]4CC[C@H](N5C(=S)N(c6ccc(C#N)c(C(F)(F)F)c6)C(=O)C5(C)C)CC4)C[C@@H]3C(F)(F)F)c21` (stereo partly drawn) [Cmpd 14, 2-((R)-4-(2-((trans-4-(3-(4-Cyano-3-(trifluoromethyl)phenyl)-5,5-dimethyl-4-oxo-2-thioxoimidazolidin-1-yl)cyclohexyl)oxy)ethyl)-2-(trifluoromethyl)piperazin-1-yl)-N-(3-(2,6-dioxopiperidin-3-yl)-1-methyl-1H-indazol-7-yl)acetamide hydrochloride] the same measures were < 2 nM and 0 to 25%.
